According to ChEMBL document CHEMBL4330132, “5-Keto-3-cyano-2,4-diaminothiophenes as selective maternal embryonic leucine zipper kinase inhibitors” (Bioorg Med Chem Lett, 2019):

Legend:
[1] = tested on: Tyrosine-protein kinase ABL1 (Homo sapiens), P00519 [H396P]; experiment: Binding affinity to human phosphorylated ABL1 H396P mutant (S229 to K512 residues) expressed in mammalian expression system assessed as residual binding level at 1 uM by Kinomescan method relative to control
[2] = biological target: Activin receptor type-1B (Homo sapiens) (UniProt P36896); experiment: Binding affinity to wild-type human ACVR1B (S187 to I505 residues) expressed in bacterial expression system assessed as residual binding level at 1 uM by Kinomescan method relative to control
[3] = biological target: Atypical kinase COQ8B, mitochondrial (Homo sapiens) (UniProt Q96D53); experiment: Binding affinity to wild-type human full length ADCK4 (M1 to S544 residues) expressed in bacterial expression system assessed as residual binding level at 1 uM by Kinomescan method relative to control
[4] = biological target: Cyclin-dependent kinase-like 5 (Homo sapiens) (UniProt O76039); experiment: Binding affinity to wild-type human partial length CDKL5 (M1 to S337 residues) expressed in mammalian expression system assessed as residual binding level at 1 uM by Kinomescan method relative to control
[5] = biological target: Serine/threonine-protein kinase Chk1 (Homo sapiens) (UniProt O14757); experiment: Binding affinity to wild-type human partial length CHEK1 (M1 to G289 residues) expressed in bacterial expression system assessed as residual binding level at 1 uM by Kinomescan method relative to control
[6] = biological target: Casein kinase I isoform alpha (Homo sapiens) (UniProt P48729); experiment: Binding affinity to wild-type human partial length CSNK1A1 (M1 to L450 residues) expressed in mammalian expression system assessed as residual binding level at 1 uM by Kinomescan method relative to control
[7] = biological target: Death-associated protein kinase 3 (Homo sapiens) (UniProt O43293); experiment: Binding affinity to wild-type human partial length DAPK3 (M1 to A277 residues) expressed in bacterial expression system assessed as residual binding level at 1 uM by Kinomescan method relative to control
[8] = biological target: Serine/threonine-protein kinase 17B (Homo sapiens) (UniProt O94768); experiment: Binding affinity to wild-type human full length DRAK2 (M1 to C372 residues) expressed in bacterial expression system assessed as residual binding level at 1 uM by Kinomescan method relative to control
[9] = tested on: Epidermal growth factor receptor (Homo sapiens), P00533 [G719C]; experiment: Binding affinity to human partial length EGFR G719C mutant (R669 to V1011 residues) expressed in bacterial expression system assessed as residual binding level at 1 uM by Kinomescan method relative to control
[10] = tested on: Epidermal growth factor receptor (Homo sapiens), P00533 [UNDEFINED MUTATION]; experiment: Binding affinity to human partial length EGFR L747-E749del/A750P mutant expressed in bacterial expression system assessed as residual binding level at 1 uM by Kinomescan method relative to control
[11] = tested on: Fibroblast growth factor receptor 3 (Homo sapiens), P22607 [G697C]; experiment: Binding affinity to human partial length FGFR3 G697C mutant (R442 to S771 residues) expressed in bacterial expression system assessed as residual binding level at 1 uM by Kinomescan method relative to control
[12] = biological target: Vascular endothelial growth factor receptor 1 (Homo sapiens) (UniProt P17948); experiment: Binding affinity to wild-type human partial length FLT1 (R781 to F1239 residues) expressed in bacterial expression system assessed as residual binding level at 1 uM by Kinomescan method relative to control
[13] = biological target: Mitogen-activated protein kinase 9 (Homo sapiens) (UniProt P45984); experiment: Binding affinity to wild-type human full length JNK2 (M1 to Q382 residues) expressed in mammalian expression system assessed as residual binding level at 1 uM by Kinomescan method relative to control
[14] = biological target: Mast/stem cell growth factor receptor Kit (Homo sapiens) (UniProt P10721); experiment: Binding affinity to wild-type human partial length KIT (I571 to D952 residues) expressed in bacterial expression system assessed as residual binding level at 1 uM by Kinomescan method relative to control
[15] = biological target: Mitogen-activated protein kinase kinase kinase kinase 4 (Homo sapiens) (UniProt O95819); experiment: Binding affinity to wild-type human partial length MAP4K4 (M1 to R310 residues) expressed in bacterial expression system assessed as residual binding level at 1 uM by Kinomescan method relative to control
[16] = biological target: Mitogen-activated protein kinase kinase kinase kinase 5 (Homo sapiens) (UniProt Q9Y4K4); experiment: Binding affinity to wild-type human partial length MAP4K5 (M1 to P297 residues) expressed in bacterial expression system assessed as residual binding level at 1 uM by Kinomescan method relative to control
[17] = tested on: Hepatocyte growth factor receptor (Homo sapiens), P08581 [M1250T]; experiment: Binding affinity to human partial length MET M1250T mutant (D1010 to S1367 residues) expressed in bacterial expression system assessed as residual binding level at 1 uM by Kinomescan method relative to control
[18] = biological target: Serine/threonine-protein kinase 24 (Homo sapiens) (UniProt Q9Y6E0); experiment: Binding affinity to wild-type human partial length MST3 (A30 to S311 residues) expressed in bacterial expression system assessed as residual binding level at 1 uM by Kinomescan method relative to control
[19] = biological target: Serine/threonine-protein kinase 38-like (Homo sapiens) (UniProt Q9Y2H1); experiment: Binding affinity to wild-type human partial length NDR2 (N34 to E447 residues) expressed in bacterial expression system assessed as residual binding level at 1 uM by Kinomescan method relative to control
[20] = biological target: Mitogen-activated protein kinase 12 (Homo sapiens) (UniProt P53778); experiment: Binding affinity to wild-type human full length p38-gamma (M1 to L367 residues) expressed in mammalian expression system assessed as residual binding level at 1 uM by Kinomescan method relative to control
[21] = biological target: Serine/threonine-protein kinase N2 (Homo sapiens) (UniProt Q16513); experiment: Binding affinity to wild-type human partial length PKN2 (E634 to C984 residues) expressed in bacterial expression system assessed as residual binding level at 1 uM by Kinomescan method relative to control
[22] = biological target: Serine/threonine-protein kinase PLK2 (Homo sapiens) (UniProt Q9NYY3); experiment: Binding affinity to wild-type human partial length PLK2 (H58 to F354 residues) expressed in mammalian expression system assessed as residual binding level at 1 uM by Kinomescan method relative to control
[23] = biological target: Protein kinase C theta type (Homo sapiens) (UniProt Q04759); experiment: Binding affinity to wild-type human partial length PRKCQ (L350 to S706 residues) expressed in bacterial expression system assessed as residual binding level at 1 uM by Kinomescan method relative to control
[24] = biological target: Dual specificity protein kinase TTK (Homo sapiens) (UniProt P33981); experiment: Binding affinity to wild-type human partial length TTK (N505 to V798 residues) expressed in bacterial expression system assessed as residual binding level at 1 uM by Kinomescan method relative to control
[25] = biological target: Serine/threonine-protein kinase ULK1 (Homo sapiens) (UniProt O75385); experiment: Binding affinity to wild-type human partial length ULK1 (M1 to T309 residues) expressed in mammalian expression system assessed as residual binding level at 1 uM by Kinomescan method relative to control

Casein kinase I isoform alpha (Homo sapiens), sequence (P48729 2-337 limits assumed): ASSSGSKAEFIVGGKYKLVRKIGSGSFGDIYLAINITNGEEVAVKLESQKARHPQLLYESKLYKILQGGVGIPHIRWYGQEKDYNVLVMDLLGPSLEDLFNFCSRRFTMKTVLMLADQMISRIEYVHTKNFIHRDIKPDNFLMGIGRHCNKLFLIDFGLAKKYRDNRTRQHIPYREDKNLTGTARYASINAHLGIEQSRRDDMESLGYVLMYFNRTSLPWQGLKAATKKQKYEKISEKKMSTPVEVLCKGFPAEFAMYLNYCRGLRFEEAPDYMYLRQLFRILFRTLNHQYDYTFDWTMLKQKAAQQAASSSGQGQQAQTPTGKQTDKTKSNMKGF
Cyclin-dependent kinase-like 5 (Homo sapiens), sequence (O76039 whole entry, the tested form may be a part): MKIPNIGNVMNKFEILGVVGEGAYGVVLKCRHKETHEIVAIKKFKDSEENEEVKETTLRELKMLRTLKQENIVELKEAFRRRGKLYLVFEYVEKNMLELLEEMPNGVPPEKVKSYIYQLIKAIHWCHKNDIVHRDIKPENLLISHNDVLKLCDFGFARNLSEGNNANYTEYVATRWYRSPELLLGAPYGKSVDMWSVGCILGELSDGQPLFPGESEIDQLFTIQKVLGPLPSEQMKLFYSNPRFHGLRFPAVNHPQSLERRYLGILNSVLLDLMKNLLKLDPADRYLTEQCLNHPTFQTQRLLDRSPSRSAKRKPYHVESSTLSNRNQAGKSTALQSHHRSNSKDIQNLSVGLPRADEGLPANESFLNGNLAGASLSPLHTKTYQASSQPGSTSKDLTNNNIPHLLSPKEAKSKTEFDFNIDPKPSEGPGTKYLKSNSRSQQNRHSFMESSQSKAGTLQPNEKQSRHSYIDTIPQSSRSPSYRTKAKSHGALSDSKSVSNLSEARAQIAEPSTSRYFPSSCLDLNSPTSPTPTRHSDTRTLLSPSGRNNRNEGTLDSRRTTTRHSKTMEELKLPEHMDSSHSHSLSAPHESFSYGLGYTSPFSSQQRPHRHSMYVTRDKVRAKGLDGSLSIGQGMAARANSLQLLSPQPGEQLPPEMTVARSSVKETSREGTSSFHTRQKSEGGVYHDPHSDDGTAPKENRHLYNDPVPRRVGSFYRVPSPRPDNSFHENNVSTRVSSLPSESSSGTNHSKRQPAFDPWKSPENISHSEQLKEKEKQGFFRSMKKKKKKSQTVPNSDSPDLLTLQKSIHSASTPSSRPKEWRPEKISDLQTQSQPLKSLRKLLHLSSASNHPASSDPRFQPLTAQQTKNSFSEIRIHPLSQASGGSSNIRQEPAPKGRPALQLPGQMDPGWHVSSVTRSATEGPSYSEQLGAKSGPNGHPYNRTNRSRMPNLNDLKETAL
Activin receptor type-1B (Homo sapiens), sequence (P36896 whole entry, the tested form may be a part): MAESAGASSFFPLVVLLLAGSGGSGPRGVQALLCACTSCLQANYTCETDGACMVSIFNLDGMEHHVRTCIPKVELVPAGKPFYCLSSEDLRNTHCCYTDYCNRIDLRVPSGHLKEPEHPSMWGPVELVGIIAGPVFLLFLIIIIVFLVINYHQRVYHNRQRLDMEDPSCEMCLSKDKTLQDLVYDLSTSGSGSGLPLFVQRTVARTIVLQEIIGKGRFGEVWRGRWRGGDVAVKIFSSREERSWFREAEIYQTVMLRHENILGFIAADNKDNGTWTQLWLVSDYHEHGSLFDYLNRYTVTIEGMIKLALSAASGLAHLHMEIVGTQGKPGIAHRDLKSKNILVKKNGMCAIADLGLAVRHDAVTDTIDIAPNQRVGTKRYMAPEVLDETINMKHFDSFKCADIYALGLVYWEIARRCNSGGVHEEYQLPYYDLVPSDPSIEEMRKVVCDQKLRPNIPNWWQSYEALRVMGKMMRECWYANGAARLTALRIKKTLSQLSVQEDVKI
Atypical kinase COQ8B, mitochondrial (Homo sapiens), sequence (Q96D53 whole entry, the tested form may be a part): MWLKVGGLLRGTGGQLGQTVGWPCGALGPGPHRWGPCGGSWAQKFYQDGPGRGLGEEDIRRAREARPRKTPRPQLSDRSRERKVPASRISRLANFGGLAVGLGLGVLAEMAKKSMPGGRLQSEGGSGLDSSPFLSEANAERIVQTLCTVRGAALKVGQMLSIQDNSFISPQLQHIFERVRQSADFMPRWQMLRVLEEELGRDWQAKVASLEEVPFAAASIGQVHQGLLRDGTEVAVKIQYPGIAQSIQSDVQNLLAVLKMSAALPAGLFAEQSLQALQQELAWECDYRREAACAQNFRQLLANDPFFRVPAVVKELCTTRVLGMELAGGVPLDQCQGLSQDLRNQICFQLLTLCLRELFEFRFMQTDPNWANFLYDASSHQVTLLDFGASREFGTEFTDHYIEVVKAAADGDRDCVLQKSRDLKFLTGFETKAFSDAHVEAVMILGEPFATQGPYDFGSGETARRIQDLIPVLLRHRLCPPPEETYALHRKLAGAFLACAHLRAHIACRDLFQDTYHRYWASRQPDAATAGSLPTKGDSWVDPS
Vascular endothelial growth factor receptor 1 (Homo sapiens), sequence (P17948 whole entry, the tested form may be a part): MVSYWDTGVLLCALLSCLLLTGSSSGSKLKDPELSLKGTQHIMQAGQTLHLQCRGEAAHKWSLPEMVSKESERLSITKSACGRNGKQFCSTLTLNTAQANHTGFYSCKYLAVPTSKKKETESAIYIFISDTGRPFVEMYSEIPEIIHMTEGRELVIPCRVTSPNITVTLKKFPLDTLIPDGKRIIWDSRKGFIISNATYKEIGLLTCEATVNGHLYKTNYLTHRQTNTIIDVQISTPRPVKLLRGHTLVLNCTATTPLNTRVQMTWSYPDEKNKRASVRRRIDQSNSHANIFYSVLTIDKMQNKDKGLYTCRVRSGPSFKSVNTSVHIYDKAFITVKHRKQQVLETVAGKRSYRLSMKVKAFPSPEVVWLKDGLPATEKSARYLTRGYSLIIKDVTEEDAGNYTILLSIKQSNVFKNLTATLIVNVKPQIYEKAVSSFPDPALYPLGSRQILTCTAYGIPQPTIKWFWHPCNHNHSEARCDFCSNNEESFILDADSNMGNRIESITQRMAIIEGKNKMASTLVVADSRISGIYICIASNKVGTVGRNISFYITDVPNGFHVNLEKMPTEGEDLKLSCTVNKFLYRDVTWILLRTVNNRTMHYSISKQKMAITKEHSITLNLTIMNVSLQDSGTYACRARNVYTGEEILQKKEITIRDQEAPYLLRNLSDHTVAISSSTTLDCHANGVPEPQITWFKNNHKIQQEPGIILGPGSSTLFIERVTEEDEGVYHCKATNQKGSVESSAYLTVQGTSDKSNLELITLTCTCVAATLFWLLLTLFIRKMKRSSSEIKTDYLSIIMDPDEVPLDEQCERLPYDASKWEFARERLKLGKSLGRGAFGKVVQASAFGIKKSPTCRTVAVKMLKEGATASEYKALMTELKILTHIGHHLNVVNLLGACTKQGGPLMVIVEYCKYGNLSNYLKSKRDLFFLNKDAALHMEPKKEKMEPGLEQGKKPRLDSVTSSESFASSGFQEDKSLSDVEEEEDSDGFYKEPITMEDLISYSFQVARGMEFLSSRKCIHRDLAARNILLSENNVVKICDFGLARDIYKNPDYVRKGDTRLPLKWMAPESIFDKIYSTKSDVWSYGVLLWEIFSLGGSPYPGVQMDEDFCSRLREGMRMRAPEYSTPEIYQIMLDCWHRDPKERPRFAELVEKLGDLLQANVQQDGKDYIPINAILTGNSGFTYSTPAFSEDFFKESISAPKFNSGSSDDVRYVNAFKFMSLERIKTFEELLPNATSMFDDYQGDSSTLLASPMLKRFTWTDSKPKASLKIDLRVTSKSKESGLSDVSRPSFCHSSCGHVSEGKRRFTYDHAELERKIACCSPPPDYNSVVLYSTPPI
Mitogen-activated protein kinase kinase kinase kinase 4 (Homo sapiens), sequence (O95819 2-1239 limits assumed): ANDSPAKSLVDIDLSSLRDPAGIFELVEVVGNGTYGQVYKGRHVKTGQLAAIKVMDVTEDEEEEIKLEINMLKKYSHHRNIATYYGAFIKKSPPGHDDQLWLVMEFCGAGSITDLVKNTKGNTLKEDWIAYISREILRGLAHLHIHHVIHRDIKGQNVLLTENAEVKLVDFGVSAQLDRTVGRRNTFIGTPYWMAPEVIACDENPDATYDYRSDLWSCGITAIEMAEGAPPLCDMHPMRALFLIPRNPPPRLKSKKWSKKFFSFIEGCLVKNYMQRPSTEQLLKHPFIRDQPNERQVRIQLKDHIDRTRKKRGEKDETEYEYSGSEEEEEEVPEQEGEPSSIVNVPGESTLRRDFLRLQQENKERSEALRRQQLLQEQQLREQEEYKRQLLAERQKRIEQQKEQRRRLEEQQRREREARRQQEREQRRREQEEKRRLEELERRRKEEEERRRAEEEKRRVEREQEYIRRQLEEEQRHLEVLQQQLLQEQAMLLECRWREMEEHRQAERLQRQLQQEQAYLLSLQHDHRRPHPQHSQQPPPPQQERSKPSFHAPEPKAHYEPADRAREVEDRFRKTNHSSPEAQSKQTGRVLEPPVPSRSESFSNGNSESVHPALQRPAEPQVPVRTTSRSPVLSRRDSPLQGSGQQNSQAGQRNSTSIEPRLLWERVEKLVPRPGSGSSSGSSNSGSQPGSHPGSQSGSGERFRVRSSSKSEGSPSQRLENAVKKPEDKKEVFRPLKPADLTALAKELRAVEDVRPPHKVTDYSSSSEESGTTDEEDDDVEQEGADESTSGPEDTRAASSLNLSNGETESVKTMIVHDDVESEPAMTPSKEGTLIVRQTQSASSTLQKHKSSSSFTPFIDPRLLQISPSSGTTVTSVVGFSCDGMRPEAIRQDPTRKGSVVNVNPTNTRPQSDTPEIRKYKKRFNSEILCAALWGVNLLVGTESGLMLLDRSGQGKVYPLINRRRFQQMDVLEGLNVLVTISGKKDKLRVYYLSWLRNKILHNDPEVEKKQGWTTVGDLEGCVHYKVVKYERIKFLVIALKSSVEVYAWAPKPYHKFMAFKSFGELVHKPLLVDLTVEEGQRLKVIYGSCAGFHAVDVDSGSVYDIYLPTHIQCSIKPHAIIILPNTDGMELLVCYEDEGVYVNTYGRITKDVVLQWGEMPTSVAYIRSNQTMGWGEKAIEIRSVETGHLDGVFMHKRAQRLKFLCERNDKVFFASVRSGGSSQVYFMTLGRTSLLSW

With `CC(C)Nc1sc(C(=O)c2ccc(Cl)s2)c(N)c1C#N` the Activity [1] was 100%, the Activity [2] was 82% and the Activity [3] was 100%. It also gave an Activity [4] of 100%, an Activity [5] of 87% and an Activity [6] of 100%. For the same compound, the Activity [7] was 74%, the Activity [8] was 37% and the Activity [9] was 100%. For the same compound, the Activity [10] was 80%, the Activity [11] was 96% and the Activity [12] was 76%. For the same compound, the Activity [13] was 100%, the Activity [14] was 76% and the Activity [15] was 46%. It also gave an Activity [16] of 78%, an Activity [17] of 78% and an Activity [18] of 99%. It also gave an Activity [19] of 89%, an Activity [20] of 100% and an Activity [21] of 73%. For the same compound, the Activity [22] was 67%, the Activity [23] was 57% and the Activity [24] was 49%. The Activity [25] was 92%.
